The target in one data set is T1, CRBN (Homo sapiens, UniProt Q96SW2).
T1 construct: 6XHis (N)
The data set can be described thus: CRBN fluorescence polarization (FP) displacement assay. It is filed as binding. Also on record: key: % activity normalized to DMSO (0) and CC-220 (100) controls. As to the method: The assay cocktail was prepared by combining 6XHis-CRBN-DDB1 protein (200 nM) and Cy5-O-Len probe (30 nM) in 20 mM HEPES pH 7, 150 mM NaCl, 0.005% Tween-20 assay buffer. […] Then 20 μL of the assay cocktail was dispensed to wells of the assay plate with a Multidrop Combi Reagent Dispenser (Thermo Fisher Scientific, USA). The plates were incubated in the dark for 1 h at room temperature and then read on an Envision plate reader (Perkin Elmer, USA). Raw intensity values for each compound at each concentration were normalized to obtain % activity using the following equation: 100×[(mean(negctrl)–compound)/(mean (negctrl)–mean (posctrl))], and then pooled from replicate experiments prior to fitting. Here, negctrl and posctrl refer to the negative (DMSO) and positive controls (CC-220) on each plate. Dose-response curves were fit to the Hill equation using the GraphPad Prism (version 10).

The next data set deals with MOLM-13 cells. The experiment in a line: MOLM-13 cell viability assay (CTG, 72 h). The class given is cell-based, human. Details: key to Cell viability in MOLM-13 cells / cell viability, dose-response replicate values: % viability = 100 − % activity, normalized to controls. Particulars: for Effect on MOLM-13 cell viability (cytotoxicity) / IC50: CTG 72 h; for IC50: Homo sapiens, MOLM-13, read-out: IC50, MOLM-13 cell growth/viability. Here is the method: The primary screen was performed in 384-well format using the CellTiter Glo (CTG) luminescent cell viability assay (Promega) as previously described. […] After overnight incubation at 37 °C in a humidified 5% CO2 incubator, cells were treated with compounds in dose–response format using a Pintool on a Biomek FX^P Laboratory Automation Workstation (Beckman Coulter). […] Luminescence signal was measured using an EnVision plate reader (PerkinElmer). […]
number per well and incubated overnight at 37 °C in a humidified 5 % CO2 incubator. Compounds were transferred to the assay plate from a dose-response plate using a Labcyte Echo 650 Acoustic Liquid Handler (Beckman Coulter , USA). […]
using Promega’s CellTiter-Glo reagent according to the manufacturer’s recommendation.
Luminescence was measured on the Envision plate reader (PerkinElmer, USA). Raw luminescence relative light unit (RLU) values for each compound at each concentration were normalized to obtain % activity using the following equation (1): 100 × [(mean(negctrl) – compound)/(mean (negctrl) – mean (posctrl))]. The % activity was converted to % viability using the following equation (2):
(100 – % activity), and then pooled from replicate experiments prior to fitting. Here, negctrl and posctrl refer to the negative (DMSO) and positive controls (staurosporine) on each plate. Dose-response curves were fit to the Hill equation using the GraphPad Prism (version 10). […]

Another data set deals with T2, IKZF1 (Homo sapiens, UniProt Q13422+Q96SW2).
T2 construct: engineered by CRISPR/Cas9 to express endogenous IKZF1 (Jurkat cells) with a HiBiT tag
T2 sequence (Q13422 whole entry): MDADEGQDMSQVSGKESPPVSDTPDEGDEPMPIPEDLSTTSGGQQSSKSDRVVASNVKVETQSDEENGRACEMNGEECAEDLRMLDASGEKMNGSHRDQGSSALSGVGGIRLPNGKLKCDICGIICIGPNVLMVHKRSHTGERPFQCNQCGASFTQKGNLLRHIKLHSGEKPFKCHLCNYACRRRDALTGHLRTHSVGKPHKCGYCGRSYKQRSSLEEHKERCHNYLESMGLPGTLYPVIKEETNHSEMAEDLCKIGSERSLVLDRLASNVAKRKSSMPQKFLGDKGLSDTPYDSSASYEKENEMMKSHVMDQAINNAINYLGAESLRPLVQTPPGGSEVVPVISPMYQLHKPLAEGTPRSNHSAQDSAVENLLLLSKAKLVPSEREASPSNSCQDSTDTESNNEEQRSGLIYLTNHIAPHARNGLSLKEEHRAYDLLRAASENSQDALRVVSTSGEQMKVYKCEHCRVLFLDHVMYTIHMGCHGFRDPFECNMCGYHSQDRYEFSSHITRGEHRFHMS
T2 sequence (Q96SW2 whole entry): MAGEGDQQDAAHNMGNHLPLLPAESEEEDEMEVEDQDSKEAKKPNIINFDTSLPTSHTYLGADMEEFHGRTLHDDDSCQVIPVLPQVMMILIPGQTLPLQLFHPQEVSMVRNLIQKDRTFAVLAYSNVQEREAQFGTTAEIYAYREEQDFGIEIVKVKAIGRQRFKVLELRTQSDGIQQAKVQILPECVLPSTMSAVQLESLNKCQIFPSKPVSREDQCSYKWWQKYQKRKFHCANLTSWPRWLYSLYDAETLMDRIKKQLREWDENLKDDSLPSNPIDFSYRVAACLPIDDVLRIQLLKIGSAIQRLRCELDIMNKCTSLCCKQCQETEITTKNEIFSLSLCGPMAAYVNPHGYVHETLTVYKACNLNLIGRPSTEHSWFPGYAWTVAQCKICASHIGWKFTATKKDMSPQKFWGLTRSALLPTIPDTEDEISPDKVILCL
T2 sequence (Q16531 whole entry partner): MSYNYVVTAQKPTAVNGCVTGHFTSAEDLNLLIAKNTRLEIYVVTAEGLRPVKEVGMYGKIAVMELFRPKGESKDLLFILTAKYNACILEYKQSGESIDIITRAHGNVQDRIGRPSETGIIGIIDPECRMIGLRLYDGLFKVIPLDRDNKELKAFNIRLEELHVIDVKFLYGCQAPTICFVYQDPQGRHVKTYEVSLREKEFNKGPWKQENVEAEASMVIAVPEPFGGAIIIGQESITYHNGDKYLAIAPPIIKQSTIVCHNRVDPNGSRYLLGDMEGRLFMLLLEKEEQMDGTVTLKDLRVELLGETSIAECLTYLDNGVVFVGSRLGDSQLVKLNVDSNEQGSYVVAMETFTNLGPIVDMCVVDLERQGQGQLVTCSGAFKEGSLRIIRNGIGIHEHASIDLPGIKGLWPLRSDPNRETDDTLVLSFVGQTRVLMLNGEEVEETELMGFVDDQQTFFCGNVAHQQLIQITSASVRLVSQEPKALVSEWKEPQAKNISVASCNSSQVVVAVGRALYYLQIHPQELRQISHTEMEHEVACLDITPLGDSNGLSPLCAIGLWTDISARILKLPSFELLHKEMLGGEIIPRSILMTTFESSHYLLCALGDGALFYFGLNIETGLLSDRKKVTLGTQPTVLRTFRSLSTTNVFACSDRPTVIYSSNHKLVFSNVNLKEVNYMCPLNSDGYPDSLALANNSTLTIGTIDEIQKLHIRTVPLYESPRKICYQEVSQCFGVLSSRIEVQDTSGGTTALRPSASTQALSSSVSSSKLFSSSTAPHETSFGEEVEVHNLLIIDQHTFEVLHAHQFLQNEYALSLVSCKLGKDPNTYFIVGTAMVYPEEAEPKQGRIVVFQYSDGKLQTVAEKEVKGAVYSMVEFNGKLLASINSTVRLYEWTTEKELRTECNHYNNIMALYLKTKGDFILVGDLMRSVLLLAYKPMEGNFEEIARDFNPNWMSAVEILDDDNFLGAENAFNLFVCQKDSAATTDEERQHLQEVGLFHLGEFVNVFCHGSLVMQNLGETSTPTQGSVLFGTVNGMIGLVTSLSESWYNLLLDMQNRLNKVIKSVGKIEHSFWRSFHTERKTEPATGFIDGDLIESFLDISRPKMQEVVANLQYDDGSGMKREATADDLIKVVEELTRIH
The experiment in a line: IKZF1 HiBiT live-cell kinetic degradation assay (Jurkat cells). The class given is cell-based. The source says: To measure cellular protein levels, we used cell lines that have been engineered by CRISPR/Cas9 to express endogenous CK1α (HEK293 cells) or IKZF1 (Jurkat cells) with a HiBiT tag, which when coupled with LgBiT expression forms NanoBiT, a bioluminescent protein that can be used for kinetic studies of protein degradation. […] Cell viability was also monitored with CellTiter Glo 2.0 (Promega) at the completion of the experiment to ensure that loss of protein was not a consequence of a loss of cell viability.
IKZF1-HiBiT Jurkat LgBiT stable cells were seeded at 60,000 cells/well in 50% growth media/50% CO2 independent medium supplemented with 10% FBS and 1× Endurazine substrate. […] A dose–response curve was generated by performing 3-fold dilutions of each compound including a DMSO-only control in growth media. For live cell kinetic degradation assays, diluted compounds were added to CK1α and β-catenin plates and placed in a GloMax Discover (Promega, Cat. #GM3000) preheated to 37 °C or added to IKZF1 plates and placed in a CLARIOstar Plus (BMG LABTECH) preheated to 37 °C.
Relative protein level was determined based on normalization to the DMSO control and reported at Fractional RLUs. Degradation rate and degradation maximums were calculated from Fractional RLUs as previously described[38] using GraphPad Prism software. β-catenin stabilization time of onset for each concentration curve was calculated in GraphPad Prism by fitting an unconstrained plateau followed by one phase association model using the equation below (Y = IF(X < X0, Y0,Y0+(Plateau−Y0)*(1−exp(−K*(X−X0))))). The parameter, X0 was used as time of onset for each compound concentration.

Setting [1] is: Jurkat, 0.111 uM, read-out: IKZF1 Percent Maximum Degradation.
Setting [2] is: Jurkat, 10 µM, over 24 h, read-out: IKZF1 Dmax (HiBiT).

These results are taken from publication PMC10791743, “Selective CK1α degraders exert antiproliferative activity against a broad range of human cancer cell lines” (Nature Communications, 2024).

“And” between values parts separate entries of the source, which are not always exact repeats. Equal values may be shown once. Read-outs that look alike come from different tables or passages of the source. Some results are limits rather than exact numbers.

T1 sequence (Q96SW2 whole entry): as the sequence (Q96SW2 whole entry) above
T1 sequence (Q16531 whole entry partner): as the sequence (Q16531 whole entry partner) above

Turning to `O=C1CCC(N2Cc3c(CNC(=O)c4ccc(F)cc4)cccc3C2=O)C(=O)N1` (stereo not shown) [SJ7095], the “CRBN binding FP, Activity” value on CRBN (SJ7095, [Compound] 0.00309 mM) was 8.11 and 10.4932 and 6.274; on CRBN (SJ7095, [Compound] 0.02781 mM), 14.0709 and 18.2061 and 13.5714; on CRBN (SJ7095, [Compound] 0.08344 mM), 25.188 and 27.6328 and 27.8185; at CRBN (SJ7095, [Compound] 0.25033 mM), 29.8604 and 33.1175 and 27.1236; on CRBN (SJ7095, [Compound] 0.75100 mM) it was 30.8271 and 30.718 and 33.0309; at CRBN (SJ7095, [Compound] 2.25301 mM), 46.2943 and 45.8008 and 46.583. In addition, the “CRBN binding FP, Activity” value on CRBN (SJ7095, [Compound] 6.75903 mM) was 54.5113 and 62.5976 and 51.6216; at CRBN (SJ7095, [Compound] 20.27708 mM) it was 59.0226 and 67.7395 and 53.7066. Moreover, the “Effect on MOLM-13 cell viability (cytotoxicity)” value in the data set with MOLM-13 cells is given as “high toxicity against MOLM-13 cells”. For the same compound, the IC50 in the data set on MOLM-13 cells was 71 nM. The “Cell viability in MOLM-13 cells” value is 80.5902 and 73.7069 and 73.7893 in the data set with MOLM-13 cells (SJ7095 series, Conc 0.00049449); 82.2036 and 73.2259 and 66.8432 in the data set with MOLM-13 cells (SJ7095 series, Conc 0.00148346); 62.2665 and 53.3724 and 60.8209 in the data set with MOLM-13 cells (SJ7095 series, Conc 0.00445039); 41.9606 and 38.8721 and 37.6352 in the data set with MOLM-13 cells (SJ7095 series, Conc 0.0133512); 36.9208 and 28.2407 and 35.9101 in the data set with MOLM-13 cells (SJ7095 series, Conc 0.0400535); 28.8773 and 35.0792 and 25.4306 in the data set on MOLM-13 cells (SJ7095 series, Conc 0.12016). The “Cell viability in MOLM-13 cells” value with MOLM-13 cells (SJ7095 series, Conc 0.360481) is 19.8758 and 18.9138 and 19.7816; in the data set with MOLM-13 cells (SJ7095 series, Conc 1.08144), 22.2039 and 16.4235 and 15.6504; with MOLM-13 cells (SJ7095 series, Conc 3.24433) it was 17.3048 and 13.4196 and 15.362; in the data set on MOLM-13 cells (SJ7095 series, Conc 9.733 (unit not given), replicates), 7.49 and 6.672 and 5.493. Besides, the “IKZF1 Percent Maximum Degradation” value on IKZF1 (0.111 uM) was 51.56% and 53.98% and 57.51%; at IKZF1 (0.333 uM), 65.57% and 67.60% and 69.65%; on IKZF1 (1 uM), 74.04% and 75.26% and 77.24%; on IKZF1 (3 uM) it was 79.22% and 78.05% and 80.15%; on IKZF1 (10 uM, replicates), 80.57% and 81.85% and 92.17%. The Dmax at 0.111 µM at IKZF1 (setting [1]) worked out at 51.7%. For the same compound, on IKZF1 (Jurkat, 0.333 uM, read-out: IKZF1 Percent Maximum Degradation), the Dmax at 0.333 µM worked out at 64.8%. The Dmax at 1 µM on IKZF1 (Jurkat, 1 uM, read-out: IKZF1 Percent Maximum Degradation) was determined as 73.8%. Further, the Dmax at 3 µM at IKZF1 (Jurkat, 3 uM, read-out: IKZF1 Percent Maximum Degradation) was 78.4%. Further, the Dmax at 10 µM at IKZF1 (Jurkat, 10 uM, replicates, read-out: IKZF1 Percent Maximum Degradation) amounted to 80%. Moreover, on IKZF1 (Jurkat, at 4 h), it took 69 nM to reach half-maximal degradation (DC50).

As for `O=C1CCC(N2Cc3cc(Nc4noc5ccccc45)ccc3C2=O)C(=O)N1` (stereo not shown) [SJ3149], the “CRBN binding FP, Activity” value was 17.1311 and 16.8724 and 13.6243 at CRBN (SJ3149, [Compound] 0.25625 mM); 34.3137 and 35.3073 and 29.4577 on CRBN (SJ3149, [Compound] 0.76875 mM); 56.4886 and 56.6964 and 54.8148 on CRBN (SJ3149, [Compound] 2.31250 mM); 75.4128 and 74.3041 and 71.3624 at CRBN (SJ3149, [Compound] 6.93750 mM); 81.1017 and 84.4669 and 74.3386 at CRBN (SJ3149, [Compound] 20.81250 mM); 71.4654 and 75.3676 and 66.9577 at CRBN (SJ3149, [Compound] 62.50000 mM). In the data set on MOLM-13 cells, the “Effect on MOLM-13 cell viability (cytotoxicity)” value is “more robust effect on the viability of MOLM-13 cells”. Besides, the IC50 in the data set with MOLM-13 cells worked out at 13 nM. The “Cell viability in MOLM-13 cells” value with MOLM-13 cells (SJ3149 series, Conc 0.000508) is 101.693 and 103.275 and 101.343; in the data set with MOLM-13 cells (SJ3149 series, Conc 0.00152416), 101.046 and 101.638 and 102.894; in the data set on MOLM-13 cells (SJ3149 series, Conc 0.00457247), 93.8551 and 92.4498 and 91.2385; with MOLM-13 cells (SJ3149 series, Conc 0.0137174) it was 62.1406 and 65.1592 and 63.0989; in the data set on MOLM-13 cells (SJ3149 series, Conc 0.0411523), 25.3582 and 28.4617 and 24.9569; with MOLM-13 cells (SJ3149 series, Conc 0.123457), 6.148 and 8.382 and 8.141. The “Cell viability in MOLM-13 cells” value was 3.25 and 4.028 and 3.791 in the data set with MOLM-13 cells (SJ3149 series, Conc 0.37037); 2.026 and 2.1314 and 2.9156 in the data set with MOLM-13 cells (SJ3149 series, Conc 1.11111); 1.946 and 1.78 and 2.069 in the data set on MOLM-13 cells (SJ3149 series, Conc 3.33333); 0.7978 and 0.8668 and 1.097 with MOLM-13 cells (SJ3149 series, Conc 10). Besides, on IKZF1 (10 uM, replicates), the “IKZF1 Percent Maximum Degradation” value was 11.66% and -2.50% and 4.13% and 1.42%. Moreover, the Dmax at 10 µM at IKZF1 (setting [2]) was below 10%.

With `Cc1cccc(C(=O)Nc2ccc3c(c2)CN(C2CCC(=O)NC2=O)C3=O)c1` (stereo not shown) [SJ0040], the “CRBN binding FP, Activity” value at CRBN (SJ10040, [Compound] 2.71597 mM) was 47.7349 and 37.554 and 42.475; on CRBN (SJ10040, [Compound] 8.14792 mM), 56.459 and 48.508 and 56.8103; on CRBN (SJ10040, [Compound] 24.44375 mM) it was 60.7319 and 59.4621 and 64.1617; at CRBN (SJ10040, [Compound] 73.33125 mM), 69.456 and 67.5893 and 79.2322. The “Cell viability in MOLM-13 cells” value in the data set with MOLM-13 cells (SJ0040 series, Conc 0.000596098) was 72.251 and 62.2023 and 81.3879; in the data set on MOLM-13 cells (SJ0040 series, Conc 0.0017883) it was 82.0109 and 75.8813 and 72.6272; with MOLM-13 cells (SJ0040 series, Conc 0.00536488) it was 61.7374 and 60.0676 and 62.6116; in the data set with MOLM-13 cells (SJ0040 series, Conc 0.0160947), 47.3097 and 40.7507 and 48.8062; with MOLM-13 cells (SJ0040 series, Conc 0.048284) it was 27.7074 and 26.3493 and 30.1451; in the data set on MOLM-13 cells (SJ0040 series, Conc 0.144852) it was 14.8484 and 15.2529 and 14.8047. In addition, the “Cell viability in MOLM-13 cells” value in the data set with MOLM-13 cells (SJ0040 series, Conc 0.434556) was 9.851 and 9.013 and 9.549; in the data set on MOLM-13 cells (SJ0040 series, Conc 1.30367) it was 6.737 and 6.253 and 6.807; in the data set on MOLM-13 cells (SJ0040 series, Conc 3.911), 4.756 and 5.128 and 7.933. The “IKZF1 Percent Maximum Degradation” value on IKZF1 (10 uM, replicates, listed as SJ10040) was -2.54% and -2.18% and 5.17% and -2.35%. The Dmax at 0.111 µM at IKZF1 (setting [1]) amounted to 0%. Also, the Dmax at 10 µM at IKZF1 (setting [2]) was below 10%.
